Literature values, collected in PubChem BioAssay AID1259410 (Chemical Carcinogenesis Research Information System (CCRIS), 2018).

Test system: rodent tumor promotion studies, tumor incidence
Experiment: CCRIS tumor promotion studies

In the case of `COC(=O)[C@@H](N)Cc1ccc(O)cc1`, the outcome (Carcinogen: N-METHYL-N'-NITRO-N-NITROSOGUANIDINE, 70-25-7, Doses [Carcinogen]: 25 UG/ML IN DRINKING WATER FOR 25 WK, Doses [Promoter]: 0, 512 MG/KG BW IN 0.9% SALINE 1/2 D FOR 26 WK BEGINNING 1 WK POST CARCINOGEN TREATMENT (STUDY DURATION: 52 WK), Route [Carcinogen]: ORAL, Route [Promoter]: SUBCUTANEOUS, Species: RAT, Strain/Sex: WISTAR/MALE) is given as “stomach: adenocarcinoma” and the outcome (Carcinogen: N-METHYL-N'-NITRO-N-NITROSOGUANIDINE, 70-25-7, Doses [Carcinogen]: 50 UG/ML IN DRINKING WATER FOR 20 WK, Doses [Promoter]: 0, 2 ML/KG IN A VOLUME OF 2 ML/KG 0.9% NACL AT DOSE LEVEL OF 512 MG/KG/BW 1/2 D FOR 32 WK (STUDY DURATION: 32 WK), Route [Carcinogen]: ORAL, Route [Promoter]: SUBCUTANEOUS, Species: RAT, Strain/Sex: WISTAR/MALE) is given as “stomach: adenocarcinoma”.

For `Oc1ccc(/C=C/c2cc(O)cc(O)c2)cc1`, the outcome (Carcinogen: N-METHYL-N-NITROSOUREA, 684-93-5, Doses [Carcinogen]: 50 MG/KG ONCE AT 7 WK OF AGE, Doses [Promoter]: 100 MG/KG DAILY FOR 5 D AT 2 WK OF AGE (STUDY DURATION: 37 WK), Route [Carcinogen]: INTRAPERITONEAL, Route [Promoter]: SUBCUTANEOUS, Species: RAT, Strain/Sex: SPRAGUE-DAWLEY/FEMALE) is given as “mammary gland: adenocarcinoma”.

For `O=C1c2c(O)cccc2Cc2cccc(O)c21`, the outcome (Carcinogen: 7,12-DIMETHYLBENZ(A)ANTHRACENE, Doses [Carcinogen]: TOP, Route [Carcinogen]: DERMAL, Route [Promoter]: DERMAL, Species: MOUSE, Strain/Sex: MALE,FEMALE) is given as “integumentary system (skin)”.

In the case of `CCCCCCCCCCCC`, the outcome (Carcinogen: 7,12-DIMETHYLBENZ(A)ANTHRACENE, Doses [Carcinogen]: TOP, Route [Carcinogen]: DERMAL, Route [Promoter]: DERMAL, Species: MOUSE, Strain/Sex: FEMALE) is listed as “integumentary system (skin)”.

For `CCC(C(=O)NC(N)=O)c1ccccc1` (stereo not given), the outcome (Carcinogen: N-NITROSODIETHYLAMINE, 55-18-5, Doses [Carcinogen]: 75 MG IN STERILE SALINE ONCE, Doses [Promoter]: 0, 444 PPM IN DIET BEGINNING 2 WK POST CARCINOGEN DOSE AND CONTINUING FOR DURATION OF STUDY (STUDY DURATION: 78 WK), Route [Carcinogen]: INTRAPERITONEAL, Route [Promoter]: ORAL, Species: RAT, Strain/Sex: F344/MALE) is given as “liver: hepatocellular adenoma”.

In the case of `CC[C@@H](C)[C@H](NC(=O)CN)C(=O)N[C@H](C(=O)N[C@@H](CCC(=O)O)C(=O)N[C@@H](CCC(N)=O)C(=O)N[C@H]1CSSC[C@H]2NC(=O)[C@H]([C@H](C)CC)NC(=O)[C@H](CO)NC(=O)[C@H]([C@H](C)O)NC(=O)[C@H](CSSC[C@H](NC(=O)[C@H](CC(C)C)NC(=O)[C@H](Cc3c[nH]cn3)NC(=O)[C@H](CCC(N)=O)NC(=O)[C@@H](NC(=O)[C@@H](NC(=O)[C@@H](N)Cc3ccccc3)C(C)C)C(N)=O)C(=O)NCC(=O)N[C@@H](CO)C(=O)N[C@@H](Cc3c[nH]cn3)C(=O)N[C@@H](CC(C)C)C(=O)N[C@@H](C(C)C)C(=O)N[C@@H](CCC(=O)O)C(=O)N[C@@H](C)C(=O)N[C@@H](CC(C)C)C(=O)N[C@@H](Cc3ccc(O)cc3)C(=O)N[C@@H](CC(C)C)C(=O)N[C@@H](C(C)C)C(=O)N[C@H](C(=O)NCC(=O)N[C@@H](CCC(=O)O)C(=O)N[C@@H](CCCNC(=N)N)C(=O)NCC(=O)N[C@@H](Cc3ccccc3)C(=O)N[C@@H](Cc3ccccc3)C(=O)N[C@@H](Cc3ccc(O)cc3)C(=O)N[C@H](C(=O)N3CCC[C@H]3C(=O)N[C@@H](CCCCN)C(=O)N[C@H](C(=O)O)[C@H](C)O)[C@H](C)O)CSSC[C@@H](C(=O)N[C@@H](CC(N)=O)C(=O)O)NC(=O)[C@H](Cc3ccc(O)cc3)NC(=O)[C@H](CC(N)=O)NC(=O)[C@H](CCC(=O)O)NC(=O)[C@H](CC(C)C)NC(=O)[C@H](CCC(N)=O)NC(=O)[C@H](Cc3ccc(O)cc3)NC(=O)[C@H](CC(C)C)NC(=O)[C@H](CO)NC2=O)NC1=O)C(C)C`, the outcome (Carcinogen: 7,12-DIMETHYLBENZ[A]ANTHRACENE, 57-97-6, Doses [Carcinogen]: 20 MG IN 4 ML OLIVE OIL ONCE, Doses [Promoter]: 0, 10 I.U./D BEGINNING 4 WK POST CARCINOGEN DOSE AND CONTINUING FOR DURATION OF STUDY (STUDY DURATION: 6 MO), Route [Carcinogen]: GAVAGE, Route [Promoter]: SUBCUTANEOUS, Species: RAT, Strain/Sex: SWISS/FEMALE) is given as “mammary gland: tumor”.

In the case of `CCC(CC)C(=O)NC(N)=O`, the outcome (Carcinogen: N-NITROSODIETHYLAMINE, 55-18-5, Doses [Carcinogen]: 75 MG IN STERILE SALINE ONCE, Doses [Promoter]: 0, 341 PPM IN DIET BEGINNING 2 WK POST CARCINOGEN DOSE AND CONTINUING FOR DURATION OF STUDY (STUDY DURATION: 78 WK), Route [Carcinogen]: INTRAPERITONEAL, Route [Promoter]: ORAL, Species: RAT, Strain/Sex: F344/MALE) is listed as “liver: hepatocellular adenoma; kidney: renal tubular cell adenoma or carcinoma”.

For `Cn1c(N)nc2ncc(-c3ccccc3)cc21`, the outcome (Carcinogen: 3,2'-DIMETHYL-4-AMINOBIPHENYL, 13394-86-0, Doses [Carcinogen]: 50 MG/KG BW ONCE/2 WK FOR FIRST 20 WK (STUDY DURATION: 60 WK), Doses [Promoter]: 0, 100, 300 PPM IN DIET FOR 40 WK BEGINNING 20 WK POST CARCINOGEN TREATMENT (STUDY DURATION: 60 WK), Doses [Promoter]: 0, 100, 300 PPM IN DIET FOR 40 WK BEGINNING 20 WK POST CARCINOGEN TREATMENT (STUDY DURATION: 60 WK), Route [Carcinogen]: SUBCUTANEOUS, Route [Promoter]: ORAL, Species: RAT, Strain/Sex: F344/MALE) is given as “small intestine: adenocarcinoma”, the outcome (Carcinogen: AZOXYMETHANE [25843-45-2], Doses [Carcinogen]: 2 DOSES OF 15 MG/KG BW AT 1 WK INTERVALS STARTING AT 6 WKS OF AGE (STUDY DURATION: 36 WKS), Doses [Promoter]: 0, 0.001, 0.01, 0.1, 1, 10, 50, 200 PPM IN DIET FOR 34 WKS STARTING AFTER CARCINOGEN, Doses [Promoter]: 0, 0.001, 0.01, 0.1, 1, 10, 50, 200 PPM IN DIET FOR 34 WKS STARTING AFTER CARCINOGEN, Route [Carcinogen]: SUBCUTANEOUS, Route [Promoter]: ORAL (DIET), Species: RAT, Strain/Sex: F344/MALE) is given as “large intestine: adenomas and adenocarcinoma; only doses of 50 and 200 ppm were” and the outcome (Carcinogen: DIETHYLNITROSAMINE, 55-18-5, N-METHYL-N-NITROSOUREA, 684-93-5, N-BUTYL-N-(4-HYDROXYBUTYL)NITROSAMINE, 3817-11-6, 1,, Carcinogen: DIETHYLNITROSAMINE, 55-18-5, N-METHYL-N-NITROSOUREA, 684-93-5, N-BUTYL-N-(4-HYDROXYBUTYL)NITROSAMINE, 3817-11-6, 1,, Doses [Carcinogen]: 100 MG/KG BW DEN ONCE, 20 MG/KG BW MNU 4 TIMES, 0.05% BBN IN DRINKING WATER FOR FIRST 2 WK OF STUDY, 40 MG/KG DMH 4 TIME, Doses [Carcinogen]: 100 MG/KG BW DEN ONCE, 20 MG/KG BW MNU 4 TIMES, 0.05% BBN IN DRINKING WATER FOR FIRST 2 WK OF STUDY, 40 MG/KG DMH 4 TIME, Doses [Promoter]: 0, 60 PPM IN DIET FOR 24 WK BEGINNING AT WK 5 OF STUDY (STUDY DURATION: 29 WK), Route [Carcinogen]: INTRAPERITONEAL, INTRAPERITONEAL, ORAL, SUBCUTANEOUS, ORAL, Route [Carcinogen]: INTRAPERITONEAL, INTRAPERITONEAL, ORAL, SUBCUTANEOUS, ORAL, Route [Promoter]: ORAL, Species: RAT, Strain/Sex: F344/MALE) is given as “large intestine: adenocarcinoma”. For the same compound, the outcome (Carcinogen: DIETHYLNITROSAMINE, 55-18-5, N-METHYL-N-NITROSOUREA, 684-93-5, N-BUTYL-N-(4-HYDROXYBUTYL)NITROSAMINE, 3817-11-6, 1,, Carcinogen: DIETHYLNITROSAMINE, 55-18-5, N-METHYL-N-NITROSOUREA, 684-93-5, N-BUTYL-N-(4-HYDROXYBUTYL)NITROSAMINE, 3817-11-6, 1,, Doses [Carcinogen]: 100 MG/KG BW DEN ONCE, 20 MG/KG BW MNU 4 TIMES, 0.05% BBN IN DRINKING WATER FOR FIRST 2 WK OF STUDY, 40 MG/KG DMH 4 TIME, Doses [Carcinogen]: 100 MG/KG BW DEN ONCE, 20 MG/KG BW MNU 4 TIMES, 0.05% BBN IN DRINKING WATER FOR FIRST 2 WK OF STUDY, 40 MG/KG DMH 4 TIME, Doses [Promoter]: 0, 300 PPM IN DIET FOR 24 WK BEGINNING AT WK 5 OF STUDY (STUDY DURATION: 29 WK), Route [Carcinogen]: INTRAPERITONEAL, INTRAPERITONEAL, ORAL, SUBCUTANEOUS, ORAL, Route [Carcinogen]: INTRAPERITONEAL, INTRAPERITONEAL, ORAL, SUBCUTANEOUS, ORAL, Route [Promoter]: ORAL, Species: RAT, Strain/Sex: F344/MALE) was “small intestine: adenocarcinoma; large intestine: adenocarcinoma”.

In the case of `CC(C)C[C@H](NC(=O)[C@H](Cc1ccccc1)NC(=O)CNC(=O)CNC(=O)[C@@H](N)Cc1ccc(O)cc1)C(=O)O`, the outcome (Carcinogen: N-METHYL-N'-NITRO-N-NITROSOGUANIDINE, 70-25-7, Doses [Carcinogen]: 25 UG/ML IN DRINKING WATER FOR 25 WK, Doses [Promoter]: 0, 20 UG/KG 1/2 D BEGINNING POST CARCINOGEN TREATMENT AND CONTINUING FOR THE DURATION OF STUDY (STUDY DURATION: 52 WK), Route [Carcinogen]: ORAL, Route [Promoter]: SUBCUTANEOUS, Species: RAT, Strain/Sex: WISTAR/MALE) is given as “stomach: adenocarcinoma”.

For `N#CS`, the outcome (Carcinogen: N-BIS(2-HYDROXYPROPYL)NITROSAMINE, 53609-64-6, Doses [Carcinogen]: 280 MG/100 G/BW ONCE, Doses [Promoter]: 0, 0.5% IN DRINKING WATER FOR 25 WK (STUDY DURATION: 26 WK), Route [Carcinogen]: SUBCUTANEOUS, Route [Promoter]: ORAL, Species: RAT, Strain/Sex: F344/MALE) is listed as “thyroid: neoplasm”.

In the case of H-HADGVFTSDYSRLLGQLSAKKYLESLI-NH2, the outcome (Carcinogen: AZOXYMETHANE, 25843-45-2, Doses [Carcinogen]: 7.4 MG/KG BW IN 0.9% SALINE 1/WK FOR 10 WK, Doses [Promoter]: 0, 4 NMOL/KG BW IN OLIVE OIL 1/2 D FOR DURATION OF STUDY (STUDY DURATION: 35 WK), Route [Carcinogen]: SUBCUTANEOUS, Route [Promoter]: SUBCUTANEOUS, Species: RAT, Strain/Sex: WISTAR/MALE, FEMALE) is listed as “colon: tumor”.
